According to ChEMBL document CHEMBL1765071, “Single photon emission computed tomography/positron emission tomography imaging and targeted radionuclide therapy of melanoma: new multimodal fluorinated and iodinated radiotracers” (J Med Chem, 2011):

What was measured:
[1] = tested on: Mus musculus; experiment: Biodistribution in mouse B16F0 cells bearing C57B16 mouse tumor at 1.26 to 5.29 MBq, iv after 24 hrs; type: ADME, organism-based, Neoplasm; conditions: in vivo
[2] = tested on: Mus musculus; experiment: Biodistribution in mouse B16F0 cells bearing C57B16 mouse tumor at 1.26 to 5.29 MBq, iv after 7 days; type: ADME, organism-based, Neoplasm; conditions: in vivo, 168 h
[3] = tested on: Mus musculus; experiment: Biodistribution in mouse B16F0 cells bearing C57B16 mouse tumor at 1.26 to 5.29 MBq, iv after 5 days; type: ADME, organism-based, Neoplasm; conditions: in vivo, 120 h
[4] = tested on: Mus musculus; experiment: Biodistribution in mouse B16F0 cells bearing C57B16 mouse tumor at 1.26 to 5.29 MBq, iv after 6 hrs; type: ADME, organism-based, Neoplasm; conditions: in vivo
[5] = tested on: Mus musculus; experiment: Biodistribution in mouse B16F0 cells bearing C57B16 mouse tumor at 1.26 to 5.29 MBq, iv after 1 hr; type: ADME, organism-based, Neoplasm; conditions: in vivo
[6] = tested on: Mus musculus; experiment: Biodistribution in mouse B16F0 cells bearing C57B16 mouse tumor at 1.26 to 5.29 MBq, iv after 72 hrs; type: ADME, organism-based, Neoplasm; conditions: in vivo
[7] = tested on: Mus musculus; experiment: Biodistribution in mouse B16F0 cells bearing C57B16 mouse tumor at 1.26 to 5.29 MBq, iv after 3 hrs; type: ADME, organism-based, Neoplasm; conditions: in vivo
[8] = tested on: Mus musculus; experiment: Biodistribution in mouse B16F0 cells bearing C57B16 mouse tumor at 1.26 to 5.29 MBq, iv after 10 days; type: ADME, organism-based, Neoplasm; conditions: in vivo, 240 h
[9] = tested on: Mus musculus; experiment: Biodistribution in mouse B16F0 cells bearing C57B16 mouse tumor at 1.26 to 5.29 MBq, iv after 14 days; type: ADME, organism-based, Neoplasm; conditions: in vivo, 336 h
[10] = tested on: Mus musculus; experiment: Biodistribution in mouse B16F0 cells bearing iv dosed C57B16 mouse tumor assessed as absorption dose; type: ADME, organism-based, Neoplasm; conditions: in vivo
[11] = tested on: Mus musculus; experiment: Biodistribution in mouse B16F0 cells bearing C57B16 mouse throat at 2.7 MBq, iv after 1 hr; type: ADME, organism-based; conditions: in vivo
[12] = Biodistribution in mouse B16F0 cells bearing C57B16 mouse urine at 2.7 MBq, iv after up to 24 hrs; type: ADME, organism-based; conditions: in vivo
[13] = Biodistribution in mouse B16F0 cells bearing C57B16 mouse urine at 2.7 MBq, iv after up to 82 hrs; type: ADME, organism-based; conditions: in vivo
[14] = Biodistribution in mouse B16F0 cells bearing C57B16 mouse feces at 2.7 MBq, iv after up to 24 hrs; type: ADME, organism-based; conditions: in vivo
[15] = tested on: Mus musculus; experiment: Biodistribution in mouse B16F0 cells bearing C57B16 mouse throat at 2.7 MBq, iv after 10 days; type: ADME, organism-based; conditions: in vivo, 240 h
[16] = tested on: Nucleic Acid; experiment: Ratio of drug uptake in tumor to muscle in mouse B16F0 cells bearing C57B16 mouse at 2.7 MBq, iv after 3 hrs; type: ADME, organism-based; conditions: in vivo
[17] = Biodistribution in mouse B16F0 cells bearing C57B16 mouse feces at 2.7 MBq, iv after up to 72 hrs; type: ADME, organism-based; conditions: in vivo
[18] = tested on: Nucleic Acid; experiment: Ratio of drug uptake in tumor to muscle in mouse B16F0 cells bearing C57B16 mouse at 2.7 MBq, iv after 1 hr; type: ADME, organism-based; conditions: in vivo
[19] = Antitumor activity against mouse B16F0 cells bearing C57B16 mouse assessed as inhibition of tumor growth doubling time at 18.5 MBq, iv administered 2 times on day 6 and 10; type: functional
[20] = tested on: Mus musculus; experiment: Biodistribution in mouse B16F10 cells bearing C57B16 mouse tumor assessed per volume of tissue at 7.4 MBq, iv after 4 hrs; type: ADME, organism-based, Neoplasm, B16-F10; conditions: in vivo
[21] = tested on: Mus musculus; experiment: Biodistribution in mouse B16F0 cells bearing C57B16 mouse tumor assessed per volume of tissue at 7.4 MBq, iv after 4 hrs; type: ADME, organism-based, Neoplasm; conditions: in vivo
[22] = tested on: Mus musculus; experiment: Biodistribution in mouse B16F10 cells bearing C57B16 mouse tumor assessed per volume of tissue at 7.4 MBq, iv after 2 hrs; type: ADME, organism-based, Neoplasm, B16-F10; conditions: in vivo
[23] = tested on: Mus musculus; experiment: Biodistribution in mouse B16F0 cells bearing C57B16 mouse tumor assessed per volume of tissue at 7.4 MBq, iv after 2 hrs; type: ADME, organism-based, Neoplasm; conditions: in vivo

Drug uptake [1] [% ID/g] | Drug uptake [2] [% ID/g] | Drug uptake [3] [% ID/g] | Drug uptake [4] [% ID/g] | Drug uptake [5] [% ID/g] | Drug uptake [6] [% ID/g] | Drug uptake [7] [% ID/g] | Drug uptake [8] [% ID/g] | Drug uptake [9] [% ID/g] | Structure (SMILES) | other results
5.9 | 2.1 | 2.8 | 7.4 | 7.9 |  | 8 | 0.2 | 0.6 | CCN(CCNC(=O)c1ccc2cc([125I])ccc2c1)CCOc1cccnc1F.Cl | 
8.6 | 1.5 | 2.6 | 12.5 | 13.1 | 5.7 | 13.7 | 0.8 | 0.4 | CCN(CCNC(=O)c1cnc2cc([125I])ccc2n1)CCNc1cccc(F)n1.Cl.Cl | 
15.6 | 3.9 | 6.4 | 13.4 | 13.2 | 8.6 | 13.1 | 2.3 | 1.6 | CCN(CCNC(=O)c1cn2cc([125I])ccc2n1)CCOc1cccnc1F.Cl.Cl | 
18.2 | 3.2 | 5.2 | 18.8 | 12.7 | 10.3 | 20.2 | 1.7 | 0.6 | CCN(CCNC(=O)c1cnc2cc([125I])ccc2n1)CCOc1cccnc1F.Cl.Cl | Drug uptake [11]: 1.5 %ID; Drug uptake [12]: 38.1 %ID; Drug uptake [13]: 45.1 %ID; Drug uptake [14]: 36.1 %ID; Drug uptake [15]: 0.1 %ID; Ratio [16]: 37; Drug uptake [17]: 18.7 %ID; Ratio [18]: 23
16.3 | 2.5 | 5.1 | 14.1 | 9.1 | 9.5 | 9.3 | 1.4 | 0.7 | CCN(CCCc1ccnc(F)c1)CCNC(=O)c1cnc2cc([125I])ccc2n1.Cl.Cl | 
13.8 | 2 | 3.7 | 13.8 | 11.4 | 5.8 | 12.3 | 1.2 | 0.7 | CCN(CCNC(=O)c1cccc2nc3cc([125I])ccc3nc12)CCOc1cccnc1F.Cl.Cl | 
16 | 4.3 | 4.5 | 13 | 10.7 | 8.6 | 13 | 2.7 | 2 | CCN(CCNC(=O)c1cccc2c(=O)c3cc([125I])ccc3[nH]c12)CCOc1cccnc1F.Cl | 
6.3 | 1.1 | 2.3 | 9.7 | 10.7 | 3.2 | 10.8 | 0.4 | 0.2 | CCN(CCNC(=O)c1ccc2cc([125I])ccc2n1)CCOc1cccnc1F.Cl.Cl | 
28 | 3.4 | 7.3 | 29.6 | 21.8 | 12.3 | 26.3 | 1.9 |  | CCN(CC)CCNC(=O)c1cnc2cc([125I])ccc2n1.Cl.Cl | 
11.2 | 3 | 5.2 | 14.5 | 12.1 | 7.7 | 13.3 | 1.6 | 1.1 | CCN(CCNC(=O)c1cnc2cc([125I])ccc2n1)CCc1ccnc(F)c1.Cl.Cl | 

Second part, the compound before the results:

Structure (SMILES) | Drug uptake [1] [% ID/g] | Drug uptake [2] [% ID/g] | Drug uptake [3] [% ID/g] | Drug uptake [4] [% ID/g] | Drug uptake [5] [% ID/g] | Drug uptake [6] [% ID/g] | Drug uptake [7] [% ID/g] | Drug uptake [8] [% ID/g] | Drug uptake [9] [% ID/g] | other results
CCN(CCNC(=O)c1cnc2cc([125I])ccc2n1)c1cccc(F)n1 | 0.9 | 0.2 | 0.3 | 1.8 | 2 | 0.4 | 2.2 |  |  | 
CCN(CCNC(=O)c1ccc2cncc([125I])c2n1)CCOc1cccnc1F.Cl.Cl | 5.2 | 1.1 | 1.6 | 5.3 | 5.6 | 3.3 | 5.5 | 0.5 | 0.4 | 
CCN(CCNC(=O)c1ccnc(F)c1)CCNC(=O)c1cnc2cc([125I])ccc2n1.Cl.Cl | 12.1 |  | 5.1 | 12.1 | 9.6 | 9.6 | 8.8 |  |  | 
CCN(CC)CCNC(=O)c1cnc2cc([131I])ccc2n1.Cl.Cl |  |  |  |  |  |  |  |  |  | Drug uptake [10]: 1.71 Gy/MBq
CCN(CCNC(=O)c1cnc2cc([131I])ccc2n1)CCOc1cccnc1F.Cl.Cl |  |  |  |  |  |  |  |  |  | Drug uptake [10]: 1.12 Gy/MBq; Time [19]: 3.8 days
CCN(CC)Cc1ccnc(F)c1CNC(=O)c1cnc2cc([125I])ccc2n1.Cl.Cl | 6.4 | 1.5 | 2.4 | 6.7 | 5.6 | 4.1 | 6.5 | 0.8 | 0.7 | 
CCN(CCNC(=O)c1cnc2cc(I)ccc2n1)CCOc1cccnc1[18F] |  |  |  |  |  |  |  |  |  | Drug uptake [20]: 0.2 %ID; Drug uptake [21]: 0.6 %ID; Drug uptake [22]: 2.1 %ID; Drug uptake [23]: 8.3 %ID
CCN(CCNC(=O)c1cnc2cc([125I])ccc2n1)Cc1ccnc(F)c1.Cl.Cl | 16 |  | 7.1 | 15.4 | 10.3 | 10 | 12 | 1.9 | 0.8 | 
